Measured values from ChEMBL document CHEMBL1153102, “Synthesis and antiproliferative activity of pyrrolo[3,2-b]pyridine derivatives against melanoma” (Bioorg Med Chem Lett, 2010).

Key:
[1] = Cytotoxicity against human A375P cells by MTT assay; format: functional, cell-based
[2] = tested on: HS27; test: Cytotoxicity against human HS27 cells by MTT assay; format: cell-based

Compound: COC(=O)c1ccc2c(ccn2-c2ccc(NC(=O)c3cc(N4CCOCC4)cc(C(F)(F)F)c3)cc2)n1
- IC50 [1]: > 10 µM
- IC50 [2]: > 10 µM

Compound: O=C(Nc1ccc(-n2ccc3nc(C(=O)NCc4ccccc4)ccc32)cc1)c1ccc(Cl)c(C(F)(F)F)c1
- IC50 [1]: 0.7 µM
- IC50 [2]: 1.5 µM

Compound: NC(=O)c1ccc2c(ccn2-c2ccc(NC(=O)Nc3ccc(Cl)c(Cl)c3)cc2)n1
- IC50 [1]: 3.2 µM
- IC50 [2]: 6.6 µM

Compound: NC(=O)c1ccc2c(ccn2-c2ccc(NC(=O)Nc3ccc(Cl)c(C(F)(F)F)c3)cc2)n1
- IC50 [1]: 9.9 µM
- IC50 [2]: > 10 µM

Compound: O=C(Nc1ccc(-n2ccc3nc(C(=O)NCc4ccccc4)ccc32)cc1)c1cccc(C(F)(F)F)c1
- IC50 [1]: 3 µM
- IC50 [2]: > 10 µM

Compound: COC(=O)c1ccc2c(ccn2-c2ccc(NC(=O)Nc3ccc(Cl)c(Cl)c3)cc2)n1
- IC50 [1]: 3.8 µM
- IC50 [2]: 2.8 µM

Compound: COC(=O)c1ccc2c(ccn2-c2ccc(NC(=O)c3ccc(Cl)c(C(F)(F)F)c3)cc2)n1
- IC50 [1]: 3 µM
- IC50 [2]: 2.9 µM

Compound: O=C(Nc1ccc(-n2ccc3nc(C(=O)NCc4ccccc4)ccc32)cc1)c1cc(N2CCOCC2)cc(C(F)(F)F)c1
- IC50 [1]: > 10 µM
- IC50 [2]: > 10 µM

Compound: O=C(Nc1ccc(-n2ccc3nc(C(=O)NCc4ccccc4)ccc32)cc1)c1ccc(N2CCOCC2)c(C(F)(F)F)c1
- IC50 [1]: 0.9 µM
- IC50 [2]: 2.6 µM

Compound: COC(=O)c1ccc2c(ccn2-c2ccc(NC(=O)c3ccc(N4CCOCC4)c(C(F)(F)F)c3)cc2)n1
- IC50 [1]: 9.8 µM
- IC50 [2]: > 10 µM

Compound: COC(=O)c1ccc2c(ccn2-c2cccc(NC(=O)c3ccc(Cl)c(C(F)(F)F)c3)c2)n1
- IC50 [1]: > 10 µM
- IC50 [2]: > 10 µM

Compound: COC(=O)c1ccc2c(ccn2-c2ccc(NC(=O)Nc3ccc(Cl)c(C(F)(F)F)c3)cc2)n1
- IC50 [1]: 3.6 µM
- IC50 [2]: 8.2 µM

Compound: O=C(Nc1ccc(-n2ccc3nc(C(=O)NCc4ccccc4)ccc32)cc1)Nc1cccc(Cl)c1Cl
- IC50 [1]: > 10 µM
- IC50 [2]: > 10 µM

Compound: NC(=O)c1ccc2c(ccn2-c2ccc(NC(=O)Nc3cccc(Cl)c3Cl)cc2)n1
- IC50 [1]: 4.6 µM
- IC50 [2]: 9.8 µM

Compound: COC(=O)c1ccc2c(ccn2-c2ccc(NC(=O)Nc3cccc(Cl)c3Cl)cc2)n1
- IC50 [1]: 6.4 µM
- IC50 [2]: > 10 µM

Compound: COC(=O)c1ccc2c(ccn2-c2cccc(NC(=O)Nc3cccc(C(F)(F)F)c3)c2)n1
- IC50 [1]: > 10 µM
- IC50 [2]: > 10 µM

Compound: NC(=O)c1ccc2c(ccn2-c2ccc(NC(=O)c3cccc(C(F)(F)F)c3)cc2)n1
- IC50 [1]: > 10 µM
- IC50 [2]: > 10 µM

Compound: O=C(Nc1ccc(-n2ccc3nc(C(=O)NCc4ccccc4)ccc32)cc1)Nc1ccc(Cl)c(C(F)(F)F)c1
- IC50 [1]: 1.1 µM
- IC50 [2]: 3 µM

Compound: O=C(Nc1ccc(-n2ccc3nc(C(=O)NCc4ccccc4)ccc32)cc1)Nc1cccc(C(F)(F)F)c1
- IC50 [1]: 7.9 µM
- IC50 [2]: > 10 µM

Compound: COC(=O)c1ccc2c(ccn2-c2cccc(NC(=O)Nc3ccc(Cl)c(C(F)(F)F)c3)c2)n1
- IC50 [1]: 9.5 µM
- IC50 [2]: > 10 µM

Compound: NC(=O)c1ccc2c(ccn2-c2ccc(NC(=O)c3ccc(Cl)c(C(F)(F)F)c3)cc2)n1
- IC50 [1]: 8.9 µM
- IC50 [2]: > 10 µM

Compound: COC(=O)c1ccc2c(ccn2-c2ccc(NC(=O)c3cccc(C(F)(F)F)c3)cc2)n1
- IC50 [1]: 9.5 µM
- IC50 [2]: 9.8 µM

Compound: COC(=O)c1ccc2c(ccn2-c2cccc(NC(=O)c3cccc(C(F)(F)F)c3)c2)n1
- IC50 [1]: > 10 µM
- IC50 [2]: > 10 µM

Compound: CNC(=O)c1cc(Oc2ccc(NC(=O)Nc3ccc(Cl)c(C(F)(F)F)c3)cc2)ccn1 [SORAFENIB]
- IC50 [1]: 5.6 µM
